# Results as given in paper PMC8219695 (Nature Communications, 2021).
# Several values for one entry are separate records, joined by “and”; a condition that tells them apart may be missing. Equal values may be shown once.
# Tests used:
# [1] = molecular target: T1, mMOR (Mus musculus, UniProt P42866); experiment: BRET-based Nb33 recruitment assay at mMOR; format: cell-based; conditions: for Nb33 BRET assay at mMOR, response: single replicates, source data Fig 7a; for Emax mMOR: Nb33 BRET; for Emax mMOR / Emax: relative to DAMGO; for Emax: read-out: Emax mMOR, Nb33 BRET
# T1 construct: signal peptide (heterologous, not specified) (N); expressed in transfected cells; pcDNA3.1(+) construct made in house
# T1 sequence (P42866 whole entry): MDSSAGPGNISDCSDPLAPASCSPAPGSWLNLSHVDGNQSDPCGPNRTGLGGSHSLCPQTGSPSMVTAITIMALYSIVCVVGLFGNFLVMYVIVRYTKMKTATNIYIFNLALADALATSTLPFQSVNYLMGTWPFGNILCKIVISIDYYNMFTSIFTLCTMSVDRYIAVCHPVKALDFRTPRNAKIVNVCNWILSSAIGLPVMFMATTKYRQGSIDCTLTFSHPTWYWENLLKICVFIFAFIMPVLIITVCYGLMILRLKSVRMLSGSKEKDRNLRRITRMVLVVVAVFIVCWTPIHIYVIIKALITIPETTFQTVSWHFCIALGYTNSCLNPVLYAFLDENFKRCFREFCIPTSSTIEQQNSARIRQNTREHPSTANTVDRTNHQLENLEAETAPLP
# [2] = molecular target: T2, hMOR (Homo sapiens, UniProt P35372); experiment: cell-based; conditions: read-out: Emax hMOR
# T2 construct: expressed in transfected cells; plasmid a gift from Dr. Nevin Lambert
# T2 sequence (P35372 whole entry): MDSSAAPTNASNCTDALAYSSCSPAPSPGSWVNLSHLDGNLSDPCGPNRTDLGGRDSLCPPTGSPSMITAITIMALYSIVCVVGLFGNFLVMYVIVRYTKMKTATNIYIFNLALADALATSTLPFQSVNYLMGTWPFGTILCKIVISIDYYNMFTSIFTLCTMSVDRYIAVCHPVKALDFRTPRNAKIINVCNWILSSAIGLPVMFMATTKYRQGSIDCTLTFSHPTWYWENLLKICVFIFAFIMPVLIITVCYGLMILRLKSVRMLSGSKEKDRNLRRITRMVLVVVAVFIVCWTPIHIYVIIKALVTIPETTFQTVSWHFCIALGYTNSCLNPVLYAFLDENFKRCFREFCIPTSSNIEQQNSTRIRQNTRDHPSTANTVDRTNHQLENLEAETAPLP
# [3] = system: C57BL/6 mice; experiment: Tail-flick dose-response in C57BL/6 mice; format: in vivo, mouse; conditions: for ED50: Mus musculus, 0.25 h, read-out: ED50 (95% CI) tail-flick, n = 10; for mouse tail-flick assay (%MPE): 15 minute time point, individual animals
# Experimental: CD1 mice (n = 10), at peak analgesic time point. […] Dose–response curves of 22 (s.c.), in the tail-flick assay was evaluated 15 min post drug administration in WT, C57 mice (n = 8) and MOR KO mice (n = 5). Each point represents mean ± SEM.
# (§1) For analgesic dose–response experiments, male CD1 mice (20–32 g), 6–8 weeks were obtained from Charles River Laboratories and male C57BL/6 mice (22–30 g), 8–15 weeks were obtained from Jackson Lab (Bar Harbor, ME) and housed 5 mice per cage in a vivarium following an IACUC-approved protocol. For male C57BL/6 mice temperature was kept constant at 22 ± 2 °C, and relative humidity was maintained at 50 ± 5%. For male CD1 mice (20–32 g) the temperature was in the range of 20–26 °C and relative humidity maintained within the range of 30–70%. Mice were given access to food and tap water ad libitum. All mice used throughout the manuscript were opioid naïve. All mice were maintained on a 12 h light/dark cycle with Purina rodent chow and water available ad libitum and housed in groups of five until testing.
# Tail-flick antinociception was determined using the radiant heat tail-flick technique using an Ugo Basile model 37360 instrument as previously described[95],[96]. The intensity was set to achieve a baseline between 2 and 3 s. Baseline latencies were determined before experimental treatments for all mice. Tail-flick antinociception was assessed as an increase in baseline latency, with a maximal 15 s latency to minimize damage to the tail. Data were analyzed as percent maximal effect, % MPE, and was calculated according to the formula: % MPE = [(observed latency – baseline latency)/(maximal latency – baseline latency)] × 100. Compounds were injected s.c. and antinociception was assessed at the peak effect. Mice were tested for analgesia with cumulative subcutaneous doses of the drug until the mouse can withstand the maximal latency. Once the mouse reached the maximal latency, the mouse was no longer given higher doses. […] In vivo experiments were evaluated using GraphPad Prism 8, San Diego, CA as described above.
# 96-well plate (no. 60050; Perkin Elmer; Waltham, MA, USA). At time zero, the luciferase substrate coelenterazine H (5 μM) was added to each well. Ligands were added after 5 min, then BRET signal was measured 10 min later. BRET measurements were performed using a PHERAstar FS plate reader (BMG Labtech, Cary, NC, USA). The BRET signal was calculated as the ratio of the light emitted by the mVenus […]
# Dose–response curves were fit using a three-parameter logistic equation in GraphPad Prism 8 (Graphpad Software, La Jolla, CA, USA).
# All experiments were repeated in at least three independent trials each with triplicate determinations.
# as §1, with “dose-response” for “dose–response”, “g),6-8” for “g), 6–8”, “20-26” for “20–26”, “30-70%.” for “30–70%.”
# For analgesic testing in knockout animals, wild-type, male C57BL/6 mice (22–33 g), 10-12 weeks were purchased from the Jackson Lab (Bar Harbor, ME). These mice were kept at a constant temperature of 22 ± 2 °C, and relative humidity was maintained at 40-50%. Exon-1/Exon-11 MOR-1 KO mice on a C57 background were bred in the Pintar laboratory at Rutgers University. All mice were maintained on a 12- […]
# [4] = molecular target: hKOR (Homo sapiens, UniProt P41145); experiment: CAMYEL BRET antagonism assay at hKOR (inhibition of U-50,488); format: cell-based; conditions: for raw BRET response, antagonist activity at the hKOR (Supplementary Figure 10A): vs EC80 U50,488, replicate raw values
# hKOR, sequence (P41145 whole entry): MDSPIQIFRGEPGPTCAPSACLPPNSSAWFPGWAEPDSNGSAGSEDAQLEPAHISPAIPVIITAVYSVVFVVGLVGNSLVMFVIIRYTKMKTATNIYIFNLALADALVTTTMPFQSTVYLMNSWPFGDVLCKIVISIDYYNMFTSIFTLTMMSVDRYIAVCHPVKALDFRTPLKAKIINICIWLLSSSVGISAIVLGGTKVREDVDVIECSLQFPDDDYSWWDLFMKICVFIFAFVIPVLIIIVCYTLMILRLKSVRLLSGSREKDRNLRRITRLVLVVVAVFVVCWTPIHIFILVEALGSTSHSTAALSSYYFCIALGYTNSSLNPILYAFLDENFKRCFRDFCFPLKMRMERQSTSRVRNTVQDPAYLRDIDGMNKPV
# [5] = sc, s.c., 15 min time point, C57BL/6 mice
structure (smiles),measurement,setting,value
"CC[C@@H]1CN2CC[C@@]3(O)C(=Nc4cccc(OC)c43)[C@@H]2C[C@@H]1/C(=C\OC)C(=O)OC [7OH, 7-Hydroxymitragynine, reference compound]",EC50,[1],15 nM
same,"Nb33 BRET assay at mMOR, response","[1]; Log[drug] (M) -5, listed as 7-OH Mitragynine",31.8558 and 13.6622 and 18.9084 and 19.9525 and 1.3915 and 5.568 and 5.853 and 2.0473 and 9.468
same,"Nb33 BRET assay at mMOR, response","[1]; Log[drug] (M) -6, listed as 7-OH Mitragynine",11.2448 and 12.7863 and 8.673 and 7.158 and -2.301 and 5.3956 and -5.256 and 15.8192 and 11.2218
same,"Nb33 BRET assay at mMOR, response","[1]; Log[drug] (M) -7, listed as 7-OH Mitragynine",34.9577 and 9.119 and 11.9292 and 16.603 and 7.256 and -0.02541 and 7.483 and 5.463 and 3.637
same,"Nb33 BRET assay at mMOR, response","[1]; Log[drug] (M) -8, listed as 7-OH Mitragynine",18.0513 and 18.0293 and 14.3718 and -0.3281 and -6.115 and -12.1072 and 6.0021 and 5.2851 and -7.797
same,"Nb33 BRET assay at mMOR, response","[1]; Log[drug] (M) -9, listed as 7-OH Mitragynine",-7.335 and -6.503 and -1.285 and -14.3312 and -4.26 and -7.41 and 7.337 and -0.23 and -1.333
same,"Nb33 BRET assay at mMOR, response","[1]; Log[drug] (M) -10, listed as 7-OH Mitragynine",-7.162 and 6.7364 and 17.2382 and -2.279 and -1.22 and 15.6435 and -10.3312 and 4.394 and -8.638
same,"Nb33 BRET assay at mMOR, response","[1]; Log[drug] (M) -11, listed as 7-OH Mitragynine",8.105 and -10.4588 and 2.354 and -4.559 and 5.739 and -1.18 and -4.753 and 4.633 and 0.1195
same,Emax mMOR,[1],~ 20%
same,Emax,[1],~14%
same,Emax,[2],~22%
same,ED50,[3]; [5],0.25 mg/kg
same,mouse tail-flick assay (%MPE),"[3]; dose 0.1, s.c., listed as 7-OH mitragynine",5.405 %MPE and 8.511 %MPE and 8.661 %MPE and 16.5289 %MPE and 34.8214 %MPE and 6.87 %MPE and 7.627 %MPE and -5.556 %MPE and 0.7299 %MPE and 3.6036 %MPE
same,mouse tail-flick assay (%MPE),"[3]; dose 0.3, s.c., listed as 7-OH mitragynine",36.036 %MPE and 12.0567 %MPE and 36.2205 %MPE and 44.6281 %MPE and 52.6786 %MPE and 100 %MPE (3×) and 73.7288 %MPE and 72.2628 %MPE
same,mouse tail-flick assay (%MPE),"[3]; dose 1, s.c.",100 %MPE
same,analgesic efficacy (Emax),"[3]; s.c., 15 min time point, C57BL/6 mice, 7OH normalized to 100%",100%
"CC[C@@H]1CN2CC[C@@]3(O)C(=Nc4cc(Br)cc(OC)c43)[C@@H]2C[C@@H]1/C(=C\OC)C(=O)OC [11-Br-7OH (24), 11-Br-7OH]","raw BRET response, antagonist activity at the hKOR (Supplementary Figure 10A)",[4]; Log[drug] (M) -5,0.01109 and 0.005199 and -0.00757 and 0.006133 and 0.001515 and 0.001933 and 0.02329 and 0.01475 and 0.01349
same,"raw BRET response, antagonist activity at the hKOR (Supplementary Figure 10A)",[4]; Log[drug] (M) -6,0.0143 and 0.01072 and 0.01916 and 0.07074 and 0.07832 and 0.07872 and 0.07001 and 0.07357 and 0.05372
same,"raw BRET response, antagonist activity at the hKOR (Supplementary Figure 10A)",[4]; Log[drug] (M) -7,0.06437 and 0.07728 and 0.08334 and 0.1589 and 0.1581 and 0.1664 and 0.1453 and 0.1454 and 0.1482
same,"raw BRET response, antagonist activity at the hKOR (Supplementary Figure 10A)",[4]; Log[drug] (M) -8,0.1403 and 0.1362 and 0.1374 and 0.1753 and 0.1713 and 0.1791
same,"raw BRET response, antagonist activity at the hKOR (Supplementary Figure 10A)",[4]; Log[drug] (M) -9,0.09403 and 0.08676 and 0.08107 and 0.1704 and 0.1868 and 0.1861 and 0.1635 and 0.1852 and 0.1823
same,"raw BRET response, antagonist activity at the hKOR (Supplementary Figure 10A)",[4]; Log[drug] (M) -10,0.09782 and 0.1078 and 0.1073 and 0.1956 and 0.1911 and 0.1936 and 0.176 and 0.1692 and 0.1714
same,"raw BRET response, antagonist activity at the hKOR (Supplementary Figure 10A)",[4]; Log[drug] (M) -11,0.1073 and 0.09367 and 0.109 and 0.2072 and 0.1833 and 0.1925 and 0.1707 and 0.1895 and 0.1659
same,antagonism at hKOR,"[4]; inhibition of reference agonist U50,488 (EC80)",full inhibition
"CC[C@@H]1CN2CC[C@@]3(O)C(=Nc4cc(F)cc(OC)c43)[C@@H]2C[C@@H]1/C(=C\OC)C(=O)OC [11-F-7OH (22), 11-Fluoro-7-hydroxymitragynine]","Nb33 BRET assay at mMOR, response","[1]; Log[drug] (M) -5, listed as C11-F-7OH (22)",6.583 and -1.77 and -4.813 and -2.626 and -1.32 and 4.487 and 18.3783 and 26.5383 and 5.598 and 5.585 and 0.2094 and 5.293
same,"Nb33 BRET assay at mMOR, response","[1]; Log[drug] (M) -6, listed as C11-F-7OH (22)",0.6338 and 14.8405 and 14.4384 and 1.573 and -3.3849 and 2.324 and 3.469 and 13.567 and 11.5483 and 6.799 and 5.845 and 11.4048
same,"Nb33 BRET assay at mMOR, response","[1]; Log[drug] (M) -7, listed as C11-F-7OH (22)",2.525 and -4.237 and 5.069 and -13.128 and 0.1228 and -1.54 and 7.378 and 4.077 and 0.2648 and 1.54 and -4.687 and 9.074
same,"Nb33 BRET assay at mMOR, response","[1]; Log[drug] (M) -8, listed as C11-F-7OH (22)",0.2904 and 1.436 and 1.352 and 1.678 and 1.793 and -7.9215 and -6.277 and -6.486 and -0.06826 and 14.2168 and -0.06924 and 8.399
same,"Nb33 BRET assay at mMOR, response","[1]; Log[drug] (M) -9, listed as C11-F-7OH (22)",-2.727 and 5.58 and 0.2255 and 4.116 and 4.119 and -5.256 and -3.689 and -9.68 and 0.5281 and 3.825 and 2.847 and -6.097
same,"Nb33 BRET assay at mMOR, response","[1]; Log[drug] (M) -10, listed as C11-F-7OH (22)",3.545 and 0.5186 and 8.52 and 1.379 and 2.542 and 3.339 and 3.8632 and -1.052 and 9.1269 and 14.9582 and 6.739 and 3.3642
same,"Nb33 BRET assay at mMOR, response","[1]; Log[drug] (M) -11, listed as C11-F-7OH (22)",21.3407 and -2.769 and 15.6698 and -2.476 and 2.836 and -0.3605 and -4.304 and -16.5097 and 20.8133 and -2.923 and -1.5757 and 4.499
same,Emax mMOR,[1],near the detection limit of the assay
same,Emax,[1],< 10%
same,Emax,[2],< 10%
same,ED50,[3]; [5],0.18 mg/kg
same,mouse tail-flick assay (%MPE),"[3]; dose 0.1, s.c.",1.681 %MPE and 10.3175 %MPE and -0.885 %MPE and 20.8955 %MPE and 3.731 %MPE and 1.653 %MPE and 0.813 %MPE and 15.7895 %MPE and 6.383 %MPE and 0 %MPE
same,mouse tail-flick assay (%MPE),"[3]; dose 0.3, s.c.",0.8403 %MPE and 3.1746 %MPE and -13.2743 %MPE and 18.6567 %MPE and 7.463 %MPE and 12.3967 %MPE and 9.7561 %MPE and 0 %MPE and 87.9433 %MPE and 12.2137 %MPE
same,mouse tail-flick assay (%MPE),"[3]; dose 1, s.c.",68.0672 %MPE and 18.254 %MPE and 1.77 %MPE and 24.6269 %MPE and 3.731 %MPE and 5.785 %MPE and 8.943 %MPE and 18.0451 %MPE and 87.234 %MPE and 3.053 %MPE
same,mouse tail-flick assay (%MPE),"[3]; dose 3, s.c.",18.4874 %MPE and 30.1587 %MPE and 45.1327 %MPE and 31.3433 %MPE and 5.97 %MPE and 7.438 %MPE and 17.8862 %MPE and 23.3083 %MPE and 30.4964 %MPE and 6.87 %MPE
same,mouse tail-flick assay (%MPE),"[3]; dose 10, s.c.",6.723 %MPE and 21.4286 %MPE and -9.735 %MPE and 22.3881 %MPE and 14.9254 %MPE and 0 %MPE and 17.0732 %MPE and 28.5714 %MPE and 55.3192 %MPE and 12.9771 %MPE
same,analgesic efficacy (Emax),"[3]; mouse, in vivo, sc",21%
